Measured values: patent publication US20150290201A1, “TREATMENT OF MUSCULAR DYSTROPHIES AND ASSOCIATED CONDITIONS BY ADMINISTRATION OF MONOAMINE OXIDASE INHIBITORS” (UNIVERSITA DEGLI STUDI DI PADOVA, priority 2011, published 2015)

Experiments:
Col6a1^−/− mice [1] = test: Tm oxidation (DCB formation) by immunoelectrophoresis, Col6a1−/− mice; format: in vivo; conditions: Col6a1−/− diaphragm, pargyline 50 mg/kg/day i.p. 1 week
Col6a1^−/− mice [2] = test: Pathological markers (TUNEL, IgG staining, Evans blue, myofiber CSA) in Col6a1−/− mice; format: in vivo; conditions: pargyline treatment
Procedure: (§1) Col6a1^−/− mice were backcrossed in the inbred C57BL/6J strain for eight generations as described (Irwin, W. A., et al., (2003) Nat. Genet., 35, 367-371), and data were obtained by comparing Col6a1^−/− mice with their wild-type littermates. Wild-type C57BL/10 mice and mdx (in the C57BL/10 background) were obtained from Charles River and Jackson Laboratories, respectively. Pargyline (50 mg/kg/days) or vehicle (phosphate-buffered saline, PBS) were administered by daily intraperitoneal (i.p.) injection for 7 days in 6-month-old Col6a1^−/− and C57BL/6J male mice or 5-week-old mdx and C57BL/10 male mice. During the treatment, mice were placed in separate cages with a running wheel. At the end of the treatment, mice were sacrificed and muscles were removed and stored in liquid nitrogen until use.
(§2) Cross-sections (7 μm thick) were prepared and processed for hematoxylin and eosin (H&E) staining. For the morphometric analysis of myofiber cross sectional areas (CSAs), we counted approximately 2000 fibers per mouse for each muscle type by means of ImageJ software. At least three sections from each muscle were analyzed. TUNEL (terminal deoxynucleotidyl transferase-mediated dUTP nick end-labeling) was performed on paraffin-embedded sections (7 μm thick) using the ApopTag in situ apoptosis detection kit (Chemicon). Samples were stained with peroxidase diaminobenzidine to detect TUNEL-positive nuclei and counterstained with Hoechst 33258 to identify all nuclei, as described previously (Irwin, W. A., et al., (2003) Nat. Genet, 35, 367-371). The total number of nuclei and number of TUNEL-positive nuclei were determined in randomly selected fibers using a Zeiss Axioplan microscope equipped with a Leica DC 500 camera. Membrane permeability of skeletal muscle was directly visualized by immunohistochemical staining with IgG (Weller, B., et al., (1990) J. Neurol. Sci., 100, 9-13 and Blaauw, B., et al., (2008) Hum. Mol. Genet., 17, 3686-36%). Cryosections (10 μm thick) were incubated with anti-mouse fluorescein isothiocyanate-conjugated IgG, washed twice with PBS, mounted and visualized with an Olympus IMT-2 inverted microscope as previously described (Petronilli V., et al., (1999) Biophys. J., 76, 725-734) using excitation/emission cubes of 488/525±25 nm bandpass. Evans blue dye staining of muscles in vivo was performed by i.p. injection with 0.2 ml Evans blue (10 mg/ml in PBS; Sigma). Mice were sacrificed after 16-18 h and diaphragms were fixed with 4% paraformaldehyde overnight at 4° C. After fixation, the samples were observed by means of light microscopy.
Contractile impairment and high apoptosis rate are two specific features of skeletal muscles of Col6a1^−/− mice (Irwin, W. A., et al. (2003) Nat. Genet 35, 367-371). […] Occurrence of apoptosis was evaluated by TUNEL. […]

MAO = MAO activity assay (Amplex Red/HRP, tyramine) on muscle mitochondrial extracts after in vivo treatment; conditions: Col6a1−/− mice, gastrocnemius, pargyline 50 mg/kg/day i.p. for 1 week
Procedure: Muscle cryosections were suspended in PBS and centrifuged at 500 g for 10 min at 4° C. The supernatant was centrifuged at 8000×g for 10 min at 4° C. and the resulting pellet was resuspended in PBS and stored on ice until use. Protein concentration was determined by the Bradford assay (Bio-Rad). MAO activity assay was based on the detection of hydrogen peroxide generated during substrate catabolism in a horseradish peroxidase (HRP) coupled reaction using 10-acetyl-3,7-dihydroxyphenoxazine (Amplex Red reagent, Molecular Probes). The mitochondrial protein extracts (40 mg) were incubated in PBS with 10 mM Amplex Red and 15 mg/ml HRP. […] The fluorescence intensity was recorded at 37° C. using a Perkin Elmer LS-50B fluorimeter at the 544/590 nm excitation/emission wavelengths. Parallel samples were run in the absence of a substrate to take into account the increase in fluorescence not due to MAO activity. […]

Col6a1^−/− mice [3] = test: DHE staining for ROS detection in muscle cryosections of Col6a1−/− mice; format: in vivo; conditions: 6-month-old Col6a1−/− mice, pargyline 50 mg/kg/day i.p. 1 week
Procedure: as §1
DHE is oxidized by ROS, forming ethidium bromide, which emits red fluorescence when intercalates with DNA (Benov, L., et al., (1998) Free Radic. Biol. Med., 25, 826-831). […] For the detection of the fluorescence, 568±25 nm excitation and 585 nm long-pass emission filter settings were used. Data were acquired and analyzed using Metamorph software (Universal Imaging). […]

mdx mice [4] = test: Pathological markers (myofiber CSA, H&E inflammation, TUNEL) in mdx mice; format: in vivo; conditions: pargyline treatment
Procedure: as §1
as §2, with “Cryosections (10 μm thick) were incubated with anti-mouse fluorescein isothiocyanate-conjugated IgG, washed twice with PBS, mounted and visualized with an Olympus IMT-2 inverted microscope as previously described (Petronilli V., et al., (1999) Biophys. J., 76, 725-734) using excitation/emission cubes of 488/525±25 nm bandpass. Evans blue dye staining of muscles in vivo was performed by i.p. injection with 0.2 ml Evans blue (10 mg/ml in PBS; Sigma). Mice were sacrificed after 16-18 h and diaphragms were fixed with 4% paraformaldehyde overnight at 4° C. After fixation, the samples were observed by means of light microscopy.” left out

mdx mice [5] = test: Tm oxidation (DCB formation) by immunoelectrophoresis, mdx mice; format: in vivo; conditions: gastrocnemius and quadriceps, i.p. pargyline for 1 week
Procedure: as §1
Protein extracts were prepared as described (Canton, M., et al., (2006) Eur. Heart J., 27, 875-881). Immunoblotting were stained with the following antibodies: anti-Tm CH1 clone (Sigma), anti-MAO-B D-16 and anti-MAO-A H-70 clone (Santa Cruz). […] Quantitation of Tm oxidation was performed by densitometric analysis of the bands obtained under non-reducing conditions (ImageJ software). […] Data were expressed as percentage of DCB relative to vehicle-treated wild-type mice. […]

Col6a1^−/− mice [6] = test: Muscle functional assessment (skinned fiber tension, gastrocnemius force, running wheel) in Col6a1−/− mice; format: in vivo
Procedure: as §1
Single myofibers were isolated from Col6a1^−/− gastrocnemius muscle, chemically skinned as described (Rossi, R., et al., (2001) Am. J. Physiol. Cell Physiol., 281, C585-0594) and tension was measured during maximal isometric activation (pCa=4.5, T=20° C., initial sarcomere length=2.75 μm). Force measurements were performed in the left and/or right gastrocnemius muscle of anesthetized mice by electrical stimulation through the sciatic nerve, as described previously (Blaauw, B., et al., (2008) Hum. Mol. Genet., 17, 3686-3696). Voluntary exercise was evaluated by placing a wheel in the cage. Before the treatment, mice were placed in separate cages with wheel to acclimatize, then the average distance covered by each mouse in 24 h during the treatment was measured using an automatic counter.
Biochemical and histological analyses were paralleled by functional assessment of the contractile performance of muscles in vivo and isolated muscle fibers in vitro. Single-skinned muscle fibers dissected from gastrocnemius muscle were maximally calcium-activated at optimal sarcomere length. […] After acclimatizing mice for 1 week to a wheel placed in their cage, the daily average distance was measured.

Wild-type C57BL/10 mice = test: ROS formation in muscles of wild-type C57BL/10 mice; format: in vivo; conditions: WT-parg mice (n = 8); WT-veh = 100.0
Procedure: as §1
(§3) DHE is oxidized by ROS, forming ethidium bromide, which emits red fluorescence when intercalates with DNA (Benov, L., et al., (1998) Free Radic. Biol. Med., 25, 826-831). […] For the detection of the fluorescence, 568±25 nm excitation and 585 nm long-pass emission filter settings were used. Data were acquired and analyzed using Metamorph software (Universal Imaging).

mdx mice [7] = test: MAO-dependent ROS formation in muscles of mdx mice; format: in vivo; conditions: mdx-parg mice (n = 8)
Procedure: as §1, §3

Col6a1^−/− myoblasts = test: Mitochondrial ROS production (Mitotracker Red) in myoblasts under oxidative stress; format: cell-based, mice; conditions: Col6a1−/− diaphragm myoblasts, 100 uM pargyline; inducers 100 uM H2O2, 5 uM arachidonic acid, 0.2 uM antimycin
Procedure: Myoblasts obtained from the diaphragm of Col6a1^−/− and Col6a1^+/+ mice were loaded with Mitotracker Red (MTR, 20 nM) to assess mitochondrial ROS production. After the first acquisition (with a fluorescence microscope), different inducers of oxidative stress (A: 100 uM H2O2, B: 5 uM arachidonic acid, C: 0.2 uM antimycin) were added and frames were collected at different intervals in the absence (filled square) and in the presence (filled triangles) of a MAO inhibitor (100 uM pargyline).
The extent of ROS accumulation in myoblasts obtained from diaphragm of Col6a1^−/− and Col6a1^+/+ mice was assessed. […] Remarkably, MAO inhibition reduced the presence of ROS in Col6a1^−/− myoblasts underlying the relevance of ROS production due to MAO activity.

C#CCN(C)Cc1ccccc1 [Pargyline, N-Benzyl-N-methylprop-2-yn-1-amine]
DCB content (Tm oxidation) (Col6a1^−/− mice [1]): significantly reduced | damaged myofibers stained by Evans blue (Col6a1^−/− mice [2]; Col6a1−/− diaphragm): largely reduced | number of damaged fibers positive to IgG immunohistochemical staining (Col6a1^−/− mice [2]; Col6a1−/− diaphragm): significantly decreased | number of TUNEL-positive nuclei (Col6a1^−/− mice [2]; Col6a1−/− mice, diaphragm sections, vehicle 62.4±2.3, wild-type 2.7±1.2): 6.9±1 nuclei/mm^2 | myofiber cross-sectional area variability (different sizes, prevalence of small fibers) (Col6a1^−/− mice [2]; Col6a1−/− tibialis anterior and diaphragm): markedly reduced | MAO activity in skeletal muscle after treatment (MAO): abolished | abnormal production of ROS (DHE fluorescence) in muscles (Col6a1^−/− mice [3]): significantly decreased | number of TUNEL-positive nuclei (apoptosis) (mdx mice [4]; diaphragm sections): significantly lower incidence | myofiber CSA fiber area distribution (mdx mice [4]; gastrocnemius muscle): normalized the fiber area distribution | tissue inflammation in skeletal muscles (H&E) (mdx mice [4]): reduce tissue inflammation | oxidative modifications (Tm oxidation, DCB) (mdx mice [5]): significantly decreased | normalized force of gastrocnemius muscle in vivo (Col6a1^−/− mice [6]; Col6a1−/− mice, pargyline treatment): significantly increased | voluntary exercise performance (running wheel, daily average distance) (Col6a1^−/− mice [6]; Col6a1−/− mice, pargyline-treated versus untreated): significant improvement | contractile impairment (isometric tension of single-skinned fibers) (Col6a1^−/− mice [6]; gastrocnemius fibers of pargyline-treated Col6a1−/− mice, maximal calcium activation): disappeared | ROS formation, Gastrocnemius (Wild-type C57BL/10 mice): 102.8 ± 2.8 | ROS formation, Quadriceps (Wild-type C57BL/10 mice): 96.9 ± 6.2 | ROS formation, Quadriceps (mdx mice [7]; WT-veh = 100.0, mdx-veh 119.3 ± 1.3, in %): 102.9 ± 1.5 | ROS formation, Gastrocnemius (mdx mice [7]; WT-veh = 100.0, mdx-veh 127.8 ± 9.0): 105.6 ± 2.2 | susceptibility to oxidative stress / mitochondrial ROS (Mitotracker Red) (Col6a1^−/− myoblasts): reduced
